Assays:
MMP13 = MMP13 (Homo sapiens, UniProt P45452); assay: MMP13 inhibition (Table 1); assay type: biochemical; settings: read-out: percentage inhibition MMP13
[1] = test system: IL-2-induced peritoneal recruitment of lymphocytes; assay: IL-2-induced peritoneal recruitment of lymphocytes; assay type: in vivo, C3H/HEN mice; settings: Mus musculus, Lymphocyte, po; 3 mg/kg p.o., 15 min prior to IL-2; mice; 24 h after IL-2
Experimental: Administration of IL-2 intraperitoneally causes migration of lymphocytes into the intraperitoneal cavity. This is a model for the cellular migration that occurs during inflammation.
C3H/HEN mice (Elevage Janvier, France) were intraperitoneally injected with IL-2 (Serono Pharmaceutical Research Institute, 20 μg/kg, in saline). Compounds of the invention were suspended in 0.5% carboxymethylcellulose (CMC)/0.25% tween-20 and were administered by s.c. or p.o. route (10 ml/kg) 15 min prior to administration of IL-2.
Twenty-four hours after administration of IL-2, peritoneal white blood cells were collected by 3 successive lavages of the peritoneal cavity with 5 ml phosphate buffered saline (PBS)-1 mM EDTA (+4° C.). The suspension was centrifuged (1700 g×10 min at +4° C.). The resulting pellet was suspended in 1 ml PBS-1 mM EDTA.
Lymphocytes were identified and counted using a Beckman/Coulter counter.
The animals were divided into 6 groups (6 mice each group):
Group 1: (baseline) received 0.5% CMC/0.25% tween-20 (vehicle of compound of the invention) and saline (vehicle of IL-2);
Group 2: (control IL-2) received 0.5% CMC/0.25% tween-20 and injection of IL-2;
Group 3: Experimental group (Compound of the invention Dose 1) received a compound of the invention and injection of IL-2;
Group 4: Experimental group (Compound of the invention Dose 2) received a compound of the invention and injection of IL-2;
Group 5: Experimental group (Compound of the invention Dose 3) received a compound of the invention and injection of IL-2;
Group 6: Reference group received reference compound dexamethasone and injection of IL-2.
Inhibition of lymphocyte recruitment was calculated as follows:
Where Ly 1=Number of lymphocytes in group 1 (E3/μl), Ly 2=Number of lymphocytes in group 2 (E3/μl), Ly X=Number of lymphocytes in group X (3-5) (E3/μl).

inhibition at 0.1 µM (MMP13)	inhibition at 5 µM (MMP13)	Structure (SMILES)	inhibition in vivo at 3 mg/kg [1]
11%	94%	O=CN(O)C(CCc1ccccc1)CS(=O)(=O)N1Cc2ccccc2C1 (stereo not drawn) [Example 6, N-{1-[(1,3-dihydro-2H-isoindol-2-ylsulfonyl)methyl]-3-phenylpropyl}-N-hydroxyformamide]	40 ± 6%
5%	68%	COc1cc2c(cc1OC)CN(S(=O)(=O)CC([C@H]1COC(C)(C)O1)N(O)C=O)CC2 (stereo partly drawn) [Example 14, N-{2-[(6,7-dimethoxy-3,4-dihydroisoquinolin-2(1H)-yl)sulfonyl]-1-[(4S)-2,2-dimethyl-1,3-dioxolan-4-yl]ethyl}-N-hydroxyformamide]	50 ± 10%
